Assay results reported in US12156861B2, “Pharmaceutical composition for treating kidney cancer and application thereof” (SICHUAN JIUZHANG BIOLOGICAL SCIENCE AND TECHNOLOGY CO., LTD., priority 2018, dated 2024).
Where two headings read alike, the source gives them in different places.

Columns and labels:
[1] = test system: mouse renal cancer cell lines RuCa; assay: WST-1 growth inhibition of mouse renal cancer cell line RuCa in vitro; type: cell-based; details: for Observation of cell morphology / effect on cell growth / inhibition at 30 µg/mL / OD value (average): 48 h; for Observation of cell morphology / effect on cell growth: inverted microscope, compared with negative control; for inhibition at 30 µg/mL: Mus musculus, read-out: Inhibition rate (%); for inhibition at 30 µg/mL / OD value (average): final concentration 30 μg/ml; for OD value (average): WST-1, absorption at 440 nm; for Inhibition rate (%): Comparative Example 1, method of Experimental Example 1
Experimental: (§1) Human kidney cancer cell line A498 and mouse kidney cancer cell line RuCa; the cells were passaged prior to use, and the cells that were in a good growth state and in log phase growth were selected for use.
(§2) Then, the cells were suspended in complete medium, and the cell concentration was adjusted to 6×10^4/ml. The cells were seeded in 96 well plates at 50 μl/well […], and three multiple wells were set up for each drug concentration.
(§3) On the next day after inoculation, once cells were adherent to the wall, the drugs were added according to the following groups and then incubated for 48 h.
The storage solution of each drug was prepared into 60 μg/ml with complete medium for use; the complete medium of each test drug mentioned above (50 μl) was placed in the 96-well plate inoculated cells, and the final concentration of each group was 30 μg/ml, three wells for each concentration.
Then, 10 μl WST-1 solution was added into the wells of above drug groups, negative control group, and blank control group. After the cells were incubated in 37° C. incubator for 4 h, the absorption values of different drug groups, negative control group and blank control group were measured at 440 nm by μ-Quant microplate analyzer.

[2] = test system: transplanted tumor RuCa in mice; assay: Inhibitory effect on transplanted tumor RuCa in mice; type: in vivo, mouse; details: for Tumor inhibition rate (%) / Body weight 15 d after administration / Tumor weight: 30 mg/kg ip once a day, 15 times; for Body weight 15 d after administration / Tumor weight / Body weight Before administration: x ± SD, n = 10; for Body weight Before administration: baseline
Excerpt: Mouse renal cancer cell lines RuCa were established by subcutaneously inoculating in mouse axillary. The number of cells inoculated was 1×10^7, and after inoculation formed transplanted tumor, the cells were passaged in mice for 3 generations for use.
• 80 BABL/C-nu mice, half male and half female, weighing 18-22 g; 2 Experimental Method 2.1 Route of Administration
intraperitoneal injection (ip)
The tumor tissue in vigorous growth stage was cut into about 1.5 mm^3 and homogenized under aseptic conditions to prepare 1×10^7/ml cell suspension. 80 mice of the above specifications were inoculated subcutaneously in the right armpit with 0.1 ml cell suspension. On the second day after inoculation, the mice were weighed and randomly divided into 8 groups, with 10 mice in each group, that were test drug 1 group, test drug 2 group, test drug 3 group, test drug 4 group, test drug 5 group, test drug 6 group, test drug 7 group, and negative control group. The test drug group was administrated by intraperitoneal injection (ip), 30 mg/kg/time, once a day, and the administration was successively performed 15 times. The negative group was intraperitoneally injected with the same dose of normal saline, once a day, and the mice were weighed before administration.
At the end of administration, the experiment was stopped, and the mice were killed by cervical dislocation and weighed. The tumor was stripped, and the tumor inhibition rate was calculated.

[3] = test system: human renal cancer cell lines A498; assay: WST-1 growth inhibition of human renal cancer cell line A498 in vitro; type: cell-based; details: for Observation of cell morphology / effect on cell growth: inverted microscope, compared with negative control; for inhibition at 15 µg/mL: final concentration 15 μg/ml; for inhibition at 60 µg/mL: final concentration 60 μg/ml; for OD value (average): WST-1, absorption at 440 nm
Experimental: as §1, §2, §3
The storage solution of each drug was prepared into 60 μg/ml with complete medium for use; the complete medium of each test drug mentioned above (50 μl) was placed in the 96-well plate inoculated cells, […], three wells for each concentration.
Then, 10 μl WST-1 solution was added into the wells of above drug groups, negative control group, and blank control group. […]
In order to objectively evaluate the synergistic effect of the combination of the three compounds, according to the standard proposed in the non patent literature Chou T C. Theoretical basis, experimental design, and computerized simulation of synergism and antagonism in drug combination studies. [J].
A, B and C denote the doses of three components in the pharmaceutical composition; Ae, Be, and Ce denote the dose of a single component required to achieve the tumor inhibition efficiency of the pharmaceutical composition when using a single compound alone. […] The smaller the CI value is, the stronger the synergistic effect is.

[4] = Homo sapiens, A498, read-out: Inhibition rate (%)
[5] = Homo sapiens, A498, final concentration 30 μg/ml (Table 3), read-out: Inhibition rate (%)
[6] = Homo sapiens, A498, final concentration 30 μg/ml, 48 h, read-out: Inhibition rate (%)
[7] = final concentration 30 μg/ml, 48 h

Molecule | Observation of cell morphology / effect on cell growth [1] | inhibition at 30 µg/mL [1] | OD value (average) [1] | Tumor inhibition rate (%) [2] | Body weight 15 d after administration [2] | Tumor weight [2] | Body weight Before administration [2] | Observation of cell morphology / effect on cell growth ([3]; 48 h) | inhibition at 15 µg/mL [3, 4] | inhibition at 30 µg/mL [3, 5] | inhibition at 30 µg/mL [3, 6] | inhibition at 60 µg/mL [3, 4] | OD value (average) [3, 7] | Inhibition rate (%) [1] | inhibition at 0.1 µg/mL ([3]; Homo sapiens, A498, final concentration 0.1 μg/ml, read-out: Inhibition rate (%)) | inhibition at 0.5 µg/mL ([3]; Homo sapiens, A498, final concentration 0.5 μg/ml, read-out: Inhibition rate (%)) | inhibition at 1 µg/mL ([3]; Homo sapiens, A498, final concentration 1 μg/ml, read-out: Inhibition rate (%))
O=C(/C=C/c1ccc(O)cc1)O[C@@H]1C[C@](O)(C(=O)O)C[C@@H](O)[C@H]1O [Coumaroylquinic acid, coumaroylquinic acid] | almost had no effect on cell growth | 5.85% | 1.909 | 7.41% | 25.2 ± 1.42 | 2.5 ± 0.19 g | 19.4 ± 1.17 | almost had no effect on cell growth | 1.92% | 4.85% | 3.13% | 7.13% | 2.280 | – | – | – | –
Cinnamoylquinic acid [reference compound] | – | – | – | – | – | – | – | – | – | – | – | – | – | 13.94% | – | – | –
CNC(=O)c1cc(Oc2ccc(NC(=O)Nc3ccc(Cl)c(C(F)(F)F)c3)cc2)ccn1 [Sorafenib, sorafenib, reference compound] | – | – | – | – | – | – | – | – | – | – | – | – | – | – | 5.36% | 13.8% | 29.4%
O=C(/C=C/c1ccc(O)c(O)c1)O[C@@H]1C[C@](O)(C(=O)O)C[C@@H](O)[C@H]1O [Chlorogenic acid, chlorogenic acid] | certain effect on cell growth | 38.5% | 1.248 | 33.33% | 27.3 ± 1.19 | 1.8 ± 0.14 g | 19.6 ± 0.98 | certain effect on cell growth | 15.7% | 37.2% | 36.5% | 61.3% | 1.494 | 37.29% | – | – | –
Feruloylquinic acid [reference compound] | – | – | – | – | – | – | – | – | – | – | – | – | – | 10.42% | – | – | –
